Test results from patent US9943529B2, “Methods for reducing cellular proliferation and treating certain diseases” (BRIGHAM YOUNG UNIVERSITY, priority 2013, dated 2018).

Legend:
Conditions in all cases: 10 μM, 48 hours
[1] = tested on: LOX IMVI; test: NCI screen antiproliferative activity, sulforhodamine B, Melanoma panel; format: cell-based, human
[2] = tested on: NCI-H460
[3] = tested on: RPMI-8226; test: NCI screen antiproliferative activity, sulforhodamine B, Leukemia panel; format: cell-based, human
[4] = tested on: NCI-H322M
[5] = tested on: HL-60(TB); test: NCI screen antiproliferative activity, sulforhodamine B, Leukemia panel; format: cell-based, human
Procedure: (§1) The antiproliferative activity of compounds were determined in the National Cancer Institute (NCI) screen (Drug. Dev. Res. 1995, 34, 91-109; J. Natl. Cancer Inst. 1990, 82, 1107-1112; Drug Dev. Res. 1995, 34, 91-109). For certain compounds, cells of approximately 60 different human cancer cell lines were incubated for 48 hours with five 10-fold dilutions of the tested compounds starting from 100 μM and then treated with sulforhodamine B dye. For other compounds, cells of approximately 60 different human cancer cell lines were incubated for 48 hours with a concentration of 10 μM test compound. The ratios of recorded optical densities relative to that of the control were plotted as a function of the common logarithm of the tested compound concentrations or growth percent (for single concentration tests). The interpolation between the points located above and below the 50% percentage growth provided 50% growth inhibition (GI50) values. Total growth inhibition (TGI) and 50% lethal concentrations (LC50) were also calculated using reported methods. A “-” means not tested and/or not-determined.

[6] = tested on: CCRF-CEM; test: as above; format: cell-based, human
Procedure: as §1

[7] = tested on: M14
[8] = tested on: SF-539
[9] = tested on: SR; test: NCI screen antiproliferative activity, sulforhodamine B, Leukemia panel; format: cell-based, human
[10] = tested on: HCT-116
[11] = tested on: DU-145
[12] = tested on: MOLT-4; test: NCI screen antiproliferative activity, sulforhodamine B, Leukemia panel; format: cell-based, human
[13] = tested on: SK-MEL-5; test: NCI screen antiproliferative activity, sulforhodamine B, Melanoma panel; format: cell-based, human
[14] = tested on: OVCAR-5
[15] = tested on: TK-10
[16] = tested on: CAKI-1
[17] = tested on: MDA-MB-468; test: NCI screen antiproliferative activity, sulforhodamine B, Breast Cancer panel; format: cell-based, human
Procedure: as §1

[18] = tested on: A549/ATCC
[19] = tested on: HCT-15
[20] = tested on: OVCAR-4
[21] = tested on: UO-31
[22] = tested on: PC-3
[23] = tested on: SF-268
[24] = tested on: COLO 205; test: NCI screen antiproliferative activity, sulforhodamine B, Colon Cancer panel; format: cell-based, human
[25] = tested on: MCF7
[26] = tested on: SNB-19
[27] = tested on: NCI-H23
[28] = tested on: RXF 393
[29] = tested on: ACHN
[30] = tested on: MDA-MB-435
[31] = tested on: OVCAR-8
[32] = tested on: KM12; test: NCI screen antiproliferative activity, sulforhodamine B, Colon Cancer panel; format: cell-based, human
[33] = tested on: HT29
[34] = tested on: UACC-62
[35] = tested on: HOP-62
[36] = tested on: SK-OV-3
[37] = tested on: MALME-3M; test: NCI screen antiproliferative activity, sulforhodamine B, Melanoma panel; format: cell-based, human
[38] = tested on: SN12C
[39] = tested on: HS 578T; test: NCI screen antiproliferative activity, sulforhodamine B, Breast Cancer panel; format: cell-based, human
[40] = tested on: NCI-H226
[41] = tested on: NCI-H522
[42] = tested on: SNB-75
[43] = tested on: HCC-2998
[44] = tested on: T-47D
[45] = tested on: HOP-92
[46] = tested on: BT-549
[47] = tested on: K-562; test: NCI screen antiproliferative activity, sulforhodamine B, Leukemia panel; format: cell-based, human
[48] = tested on: A498; test: NCI screen antiproliferative activity, sulforhodamine B, Renal Cancer panel; format: cell-based, human
Procedure: as §1

[49] = tested on: IGROV1
[50] = tested on: SK-MEL-28
[51] = tested on: OVCAR-3
[52] = tested on: 786-0
[53] = tested on: SW-620; test: NCI screen antiproliferative activity, sulforhodamine B, Colon Cancer panel; format: cell-based, human
[54] = tested on: MDA-MB-231/ATCC
[55] = tested on: NCI/ADR-RES; test: NCI screen antiproliferative activity, sulforhodamine B, Ovarian Cancer panel; format: cell-based, human
Procedure: as §1

## CCCCCCCCCCCCCCCCNCCCC(C)C1CCC2C3C(OCCCN)CC4CC(OCCCN)CCC4(C)C3CC(OCCCN)C12C.Cl.Cl.Cl.Cl (stereo not shown) [CSA-92]
[1]
  Growth Percent: −60.40%
[2]
  Growth Percent: −45.47%
[3]
  Growth Percent: −15.39%
[4]
  Growth Percent: −76.83%
[5]
  Growth Percent: 4.50%
[6]
  Growth Percent: −45.52%
[7]
  Growth Percent: −28.70%
[8]
  Growth Percent: −68.05%
[9]
  Growth Percent: 2.63%
[10]
  Growth Percent: −16.64%
[11]
  Growth Percent: −82.24%
[12]
  Growth Percent: −33.70%
[13]
  Growth Percent: 3.14%
[14]
  Growth Percent: −3.67%
[15]
  Growth Percent: −60.33%
[16]
  Growth Percent: −70.80%
[17]
  Growth Percent: −55.21%
[18]
  Growth Percent: −57.98%
[19]
  Growth Percent: 7.08%
[20]
  Growth Percent: −37.10%
[21]
  Growth Percent: −52.51%
[22]
  Growth Percent: −14.45%
[23]
  Growth Percent: −38.18%
[24]
  Growth Percent: −40.80%
[25]
  Growth Percent: −44.27%
[26]
  Growth Percent: −66.56%
[27]
  Growth Percent: −39.72%
[28]
  Growth Percent: −41.21%
[29]
  Growth Percent: −26.45%
[30]
  Growth Percent: −28.31%
[31]
  Growth Percent: −48.90%
[32]
  Growth Percent: −24.28%
[33]
  Growth Percent: −40.97%
[34]
  Growth Percent: −64.22%
[35]
  Growth Percent: −49.53%
[36]
  Growth Percent: −45.67%
[37]
  Growth Percent: −60.74%
[38]
  Growth Percent: −82.86%
[39]
  Growth Percent: −34.00%
[40]
  Growth Percent: −1.42%
[41]
  Growth Percent: −43.60%
[42]
  Growth Percent: −64.78%
[43]
  Growth Percent: −32.41%
[44]
  Growth Percent: −20.87%
[45]
  Growth Percent: −33.16%
[46]
  Growth Percent: −26.02%
[47]
  Growth Percent: −34.68%
[48]
  Growth Percent: −5.88%
[49]
  Growth Percent: −41.76%
[50]
  Growth Percent: −64.73%
[51]
  Growth Percent: −10.46%
[52]
  Growth Percent: −43.08%
[53]
  Growth Percent: −25.31%
[54]
  Growth Percent: −98.22%
[55]
  Growth Percent: −60.60%

## CCCCCN(CCCCC)CCC[C@@H](C)[C@H]1CC[C@H]2[C@@H]3[C@H](OCCCN)C[C@@H]4C[C@H](OCCCN)CC[C@]4(C)[C@H]3C[C@H](OCCCN)[C@]12C [CSA-90]
[1]
  Growth Percent: 3.00%
[2]
  Growth Percent: 45.20%
[3]
  Growth Percent: −17.73%
[4]
  Growth Percent: 24.61%
[5]
  Growth Percent: −16.84%
[6]
  Growth Percent: 15.29%
[7]
  Growth Percent: 42.81%
[8]
  Growth Percent: −21.94%
[9]
  Growth Percent: 19.21%
[10]
  Growth Percent: 22.71%
[11]
  Growth Percent: 76.50%
[12]
  Growth Percent: 41.11%
[13]
  Growth Percent: 25.14%
[14]
  Growth Percent: 66.15%
[16]
  Growth Percent: 75.81%
[17]
  Growth Percent: 71.06%
[18]
  Growth Percent: 55.21%
[19]
  Growth Percent: 72.31%
[20]
  Growth Percent: 85.16%
[21]
  Growth Percent: 65.22%
[22]
  Growth Percent: 80.53%
[23]
  Growth Percent: 87.47%
[24]
  Growth Percent: 52.08%
[25]
  Growth Percent: 74.77%
[26]
  Growth Percent: 61.03%
[27]
  Growth Percent: 49.16%
[28]
  Growth Percent: 87.11%
[29]
  Growth Percent: 54.72%
[30]
  Growth Percent: −13.61%
[31]
  Growth Percent: 55.32%
[32]
  Growth Percent: 22.46%
[33]
  Growth Percent: 24.49%
[34]
  Growth Percent: 13.55%
[35]
  Growth Percent: 48.28%
[36]
  Growth Percent: 93.22%
[37]
  Growth Percent: 62.21%
[38]
  Growth Percent: 54.27%
[39]
  Growth Percent: 66.91%
[40]
  Growth Percent: 75.25%
[41]
  Growth Percent: 28.85%
[42]
  Growth Percent: 70.61%
[43]
  Growth Percent: 59.63%
[44]
  Growth Percent: 68.11%
[45]
  Growth Percent: 50.03%
[46]
  Growth Percent: 54.97%
[47]
  Growth Percent: −19.42%
[48]
  Growth Percent: 92.77%
[49]
  Growth Percent: 29.55%
[50]
  Growth Percent: 27.91%
[51]
  Growth Percent: 107.13%
[52]
  Growth Percent: 61.11%
[53]
  Growth Percent: 45.90%
[54]
  Growth Percent: 36.97%
[55]
  Growth Percent: 76.04%
